≈ marks a conversion by molar mass, not a printed value. Like-named read-outs stand apart in the source and are kept apart here.

For one assay, the system named is LoVo. Put plainly: Antiproliferative SRB assay, LoVo. Format: cell-based, human. The note with it: for IC50: Homo sapiens, LoVo, 72 h, read-out: IC50 LoVo; for SI LoVo: SI = IC50 BALB/3T3 / IC50 LoVo.
For assay [1], the system named is S. aureus ATCC 25923. Put plainly: Disc-diffusion (GIZ). Format: cell-based. The note with it: 18 h, 35 °C, un: unmeasurable. An excerpt: (§1) Microorganisms used in this study were as follows: Gram-positive cocci: S. aureus NCTC 4163, S. aureus ATCC 25923, S. aureus ATCC 6538, S. aureus ATCC 29213, S. epidermidis ATCC 12228, S. epidermidis ATCC 35984, Gram-negative rods: E. coli ATCC 10538, E. coli ATCC 25922, E. coli NCTC 8196, P. vulgaris NCTC 4635, P. aeruginosa ATCC 15442, P. aeruginosa NCTC 6749, P. aeruginosa ATCC 27863, B. bronchiseptica ATCC 4617 and yeasts: C. albicans ATCC 10231, C. albicans ATCC 90028, C. parapsilosis ATCC 22019. The other microorganisms used were obtained from the collection of the Department of Pharmaceutical Microbiology, Medical University of Warsaw, Poland.
(§2) Antibacterial activity was examined by the disc-diffusion method under standard conditions using Mueller-Hinton II agar medium (Becton Dickinson, Heidelberg, Germany) according to CLSI (previously NCCLS) guidelines. Antifungal activities were assessed using Muellere Hinton agar + 2% glucose and 0.5 mg/mL Methylene Blue Dye Medium.
(§3) Sterile filter paper discs (9 mm diameter, Whatman No. 3 chromatography paper) were dripped with tested compound solutions (in EtOH) to load […] of a given compound per disc. Dry discs were placed on the surface of appropriate agar medium. The results (diameter of the growth inhibition zone, GIZ) were read after 18 h of incubation at 35 °C.
In general terms: A growth-free zone around the sample is the usual read-out of agar diffusion tests.

Assay [2] deals with S. aureus ATCC 29213. Put plainly: Disc-diffusion (GIZ). Type of assay: cell-based. The note with it: 18 h, 35 °C, un: unmeasurable.
Description: as §1, §2, §3

A further assay concerns S. aureus ATCC 4163. In words: Disc-diffusion (GIZ). Type of assay: cell-based. The note with it: 18 h, 35 °C, un: unmeasurable.
Description: as §1, §2, §3

In another assay the test system is S. aureus ATCC 6538. Put plainly: Disc-diffusion (GIZ). Type of assay: cell-based. The note with it: 18 h, 35 °C, un: unmeasurable.
Description: as §1, §2, §3

The test system of assay [3] is S. epidermidis ATCC 12228. In words: Disc-diffusion (GIZ). The note with it: 18 h, 35 °C, un: unmeasurable. Format: cell-based.
Description: as §1, §2, §3

Assay [4] relates to S. epidermidis ATCC 35984. In words: Disc-diffusion (GIZ). Format: cell-based. The note with it: 18 h, 35 °C, un: unmeasurable.
Description: as §1, §2, §3

For assay [5], the system named is S. aureus ATCC 25923. Put plainly: MIC microdilution. Type of assay: cell-based. The note with it: Staphylococcus aureus. (In general: Dilution methods test growth across graded concentrations, often in twofold steps.)
Assay [6] concerns S. aureus ATCC 29213. In words: MIC microdilution. Type of assay: cell-based. The note with it: Staphylococcus aureus.
Assay [7] relates to S. epidermidis ATCC 12228. In words: MIC microdilution. Format: cell-based. The note with it: Staphylococcus epidermidis.
The next assay deals with MRSA 452/11. Put plainly: MIC microdilution, hospital MRSA. Type of assay: cell-based. The note with it: Staphylococcus aureus.
A further assay concerns MRSA 462/11. In words: MIC microdilution, hospital MRSA. Format: cell-based. The note with it: Staphylococcus aureus.
The subject of the next assay is MRSE 460/11. In words: MIC microdilution, hospital MRSE. Format: cell-based. The note with it: Staphylococcus epidermidis.
Another assay relates to MRSE 488/11. In words: MIC microdilution, hospital MRSE. Format: cell-based. The note with it: Staphylococcus epidermidis.
Where [8] appears, read: ATCC25923, S. aureus ATCC 25923, 18 h, 35 °C, read-out: MIC.
The mark [9] stands for this setting: ATCC29213, S. aureus ATCC 29213, 18 h, 35 °C, read-out: MIC.
[10] abbreviates: ATCC12228, S. epidermidis ATCC 12228, 18 h, 35 °C, read-out: MIC.
Where [11] appears, read: hospital MRSA strain 452/11, read-out: MIC.
The mark [12] stands for this setting: hospital MRSA strain 462/11, read-out: MIC.
Setting [13] is: hospital MRSE strain 460/11, read-out: MIC.
[14] abbreviates: hospital MRSE strain 488/11, read-out: MIC.

In the case of `CC[C@H](C(=O)NCc1ccc(F)cc1)C1CC[C@H](C)C([C@@H](C)[C@H](O)[C@H](C)C(=O)[C@H](CC)C2O[C@]3(C=C[C@@H](O)C4(CC[C@@](C)(C5CC[C@](O)(CC)[C@H](C)O5)O4)O3)[C@H](C)C[C@@H]2C)O1` (stereo partly drawn) [F-p], the concentration for half-maximal inhibition (IC50) (commonly the point on the concentration scale where inhibition reaches its midpoint) with LoVo (SRB, mean ± SD) is 6.18 ± 0.91 µM. Moreover, the “SI LoVo” value in the assay on LoVo was found to be 1.40. The GIZ in the assay on S. aureus ATCC 25923 [1] is 19 mm; in the assay with S. aureus ATCC 29213 [2], 20 mm; in the assay with S. aureus ATCC 4163, 18 mm; in the assay on S. aureus ATCC 6538, 19 mm; in assay [3], 20 mm; in assay [4], 18 mm. Further, the MIC – broadly, the least concentration at which growth counts as inhibited – worked out at 32 µg/mL (≈ 37.3 µM) in the assay with S. aureus ATCC 25923 [5] (setting [8]); 32 µg/mL (≈ 37.3 µM) in the assay on S. aureus ATCC 29213 [6] (setting [9]); 16 µg/mL (≈ 18.6 µM) in [7] (setting [10]); 16 µg/mL (≈ 18.6 µM) in the assay with MRSA 452/11 (setting [11]); 32 µg/mL (≈ 37.3 µM) with MRSA 462/11 (setting [12]); 32 µg/mL (≈ 37.3 µM) with MRSE 460/11 (setting [13]). Also, the minimum inhibitory concentration (MIC) in the assay on MRSE 488/11 (setting [14]) amounted to 128 µg/mL (≈ 149 µM).

In the case of `CC[C@H](C(=O)NCc1ccc([N+](=O)[O-])cc1)C1CC[C@H](C)C([C@@H](C)[C@H](O)[C@H](C)C(=O)[C@H](CC)C2O[C@]3(C=C[C@@H](O)C4(CC[C@@](C)(C5CC[C@](O)(CC)[C@H](C)O5)O4)O3)[C@H](C)C[C@@H]2C)O1` (stereo partly drawn) [NO2-p], in the assay with LoVo (SRB, mean ± SD), the IC50 was found to be 13.3 ± 1.94 µM. In addition, in the assay with LoVo, the “SI LoVo” value is given as 0.52. For the same compound, the GIZ entry (with S. aureus ATCC 25923 [1]; with S. aureus ATCC 29213 [2]; in the assay on S. aureus ATCC 4163; with S. aureus ATCC 6538; in assay [3]; in assay [4]) was “un” in each case. Moreover, the MIC (in the assay on S. aureus ATCC 25923 [5] (setting [8]); with S. aureus ATCC 29213 [6] (setting [9]); in assay [7] (setting [10]); in the assay on MRSA 452/11 (setting [11]); in the assay on MRSA 462/11 (setting [12]); in the assay with MRSE 460/11 (setting [13])) was 128 µg/mL (≈ 145 µM) throughout. The minimal inhibitory concentration (MIC) in the assay with MRSE 488/11 (setting [14]) was 256 µg/mL (≈ 289 µM).

With `CC[C@@H](C(=O)[C@@H](C)[C@@H](O)[C@H](C)[C@@H]1O[C@@H]([C@@H](CC)C(=O)O)CC[C@@H]1C)[C@H]1O[C@]2(C=C[C@@H](O)[C@]3(CC[C@@](C)([C@H]4CC[C@](O)(CC)[C@H](C)O4)O3)O2)[C@H](C)C[C@@H]1C` [SAL, Salinomycin], the IC50 in the assay with LoVo came to 0.47 ± 0.08 µM. Moreover, the “SI LoVo” value with LoVo was 27.70. Besides, the GIZ with S. aureus ATCC 25923 [1] worked out at 29 mm; in the assay with S. aureus ATCC 29213 [2], 28 mm; with S. aureus ATCC 4163 it was 30 mm; with S. aureus ATCC 6538, 34 mm; in [3], 34 mm; in [4] it was 33 mm. Besides, the MIC stood at 2 µg/mL (≈ 2.66 µM) against S. aureus ATCC 25923 [5] (ATCC25923, 18 h); 4 µg/mL (≈ 5.33 µM) in the assay with S. aureus ATCC 29213 [6] (ATCC29213, 18 h); 2 µg/mL (≈ 2.66 µM) in assay [7] (ATCC12228, 18 h); 16 µg/mL (≈ 21.3 µM) in the assay on MRSA 452/11 (MRSA); 16 µg/mL (≈ 21.3 µM) with MRSA 462/11 (MRSA); 16 µg/mL (≈ 21.3 µM) in the assay with MRSE 460/11 (MRSE). The compound further registered a minimal inhibitory concentration (MIC) in the assay with MRSE 488/11 (MRSE) of 16 µg/mL (≈ 21.3 µM).
